# Legend:
# P-gp = P-gp (Homo sapiens, UniProt P08183); conditions: 200 mg QD itraconazole for 5 days; reported in the literature; cited from earlier work
# [1] = Drug-drug interaction study with itraconazole; format: in vivo, humans; conditions: with coadministration of itraconazole
# Method: An open-label, fixed-sequence, 2-period drug-drug interaction (DDI) study was designed to evaluate the effect of multiple doses of a strong inhibitor of CYP3A4 and P-gp on the single-dose PK of etrumadenant in humans. Etrumadenant was supplied as 25 mg capsules. Itraconazole was used as the representative strong inhibitor of CYP3A4 and P-gp. It was supplied as 10 mg/mL oral solution, Sporanox® by Janssen Pharmaceuticals (or generic equivalent). Twenty (20) healthy, adult male and female (of non-childbearing potential) participants were enrolled. Screening of participants occurred within 28 days prior to the first dosing.
# On Day 1 of Period 1, a single 150 mg dose of etrumadenant was orally administered under fasting conditions (i.e., at least 10 hours of fasting prior to dosing and at least 4 hours postdose). PK sampling for etrumadenant and its metabolites was taken predose and up to 120 hours postdose. There was a washout of 5 days between the etrumadenant dose in Period 1 and the first itraconazole dose in Period 2.
# In Period 2, 200 mg itraconazole was orally administered twice a day (BID) on Day 1 and once a day (QD) for 9 consecutive days (on Days 2 through 10) with a single 150 mg dose of etrumadenant orally administered 1 hour after itraconazole dosing on Day 6. Itraconazole was administered under fasting conditions. On Day 6, participants fasted for at least 10 hours prior to and at least 4 hours post etrumadenant dosing. PK sampling for etrumadenant and its metabolites was taken predose and up to 120 hours after etrumadenant dosing. PK sampling for itraconazole and 1-hydroxy-itraconazole was collected on Days 5, 6, 7, 9, and 11.
# Itraconazole was administered twice on the first day of Period 2 as a loading dose to accelerate CYP3A inhibition and the inhibition was then maintained by administering itraconazole 200 mg QD for 9 consecutive days. A 200 mg BID dose level is expected to provide similar inhibition to a 400 mg QD dose. Although itraconazole reaches steady state within approximately 15 days, it has been established that QD administration of 200 mg itraconazole for 3 to 5 days allows maximum CYP3A inhibition sufficient to detect a DDI. […] As such, administration of itraconazole for at least 4 days is considered sufficient in DDI studies as a CYP3A4 and P-gp inhibitor. To maintain the level of inhibition, itraconazole was administered throughout PK sampling of etrumadenant (i.e., through Day 10 of Period 2). In addition, the itraconazole oral solution was administered under fasting conditions to maximize bioavailability.
# Participants were housed on Day −1 of Period 1, at the time indicated by the clinical research unit (CRU), until after the 120-hour blood draw and completion of study procedures in Period 2. Safety was monitored throughout the study by repeated clinical and laboratory evaluations. In this study, there were no discontinued participants. All participants who received at least one dose of study drug (including participants who terminated the study early) were asked to return to the CRU approximately 14 days after the last dose for follow-up procedures, and to determine if any adverse event (AE) had occurred since the last study visit. All adverse events reported in the study were mild and resolved without treatment.
# Chain of P-gp (P08183 whole entry): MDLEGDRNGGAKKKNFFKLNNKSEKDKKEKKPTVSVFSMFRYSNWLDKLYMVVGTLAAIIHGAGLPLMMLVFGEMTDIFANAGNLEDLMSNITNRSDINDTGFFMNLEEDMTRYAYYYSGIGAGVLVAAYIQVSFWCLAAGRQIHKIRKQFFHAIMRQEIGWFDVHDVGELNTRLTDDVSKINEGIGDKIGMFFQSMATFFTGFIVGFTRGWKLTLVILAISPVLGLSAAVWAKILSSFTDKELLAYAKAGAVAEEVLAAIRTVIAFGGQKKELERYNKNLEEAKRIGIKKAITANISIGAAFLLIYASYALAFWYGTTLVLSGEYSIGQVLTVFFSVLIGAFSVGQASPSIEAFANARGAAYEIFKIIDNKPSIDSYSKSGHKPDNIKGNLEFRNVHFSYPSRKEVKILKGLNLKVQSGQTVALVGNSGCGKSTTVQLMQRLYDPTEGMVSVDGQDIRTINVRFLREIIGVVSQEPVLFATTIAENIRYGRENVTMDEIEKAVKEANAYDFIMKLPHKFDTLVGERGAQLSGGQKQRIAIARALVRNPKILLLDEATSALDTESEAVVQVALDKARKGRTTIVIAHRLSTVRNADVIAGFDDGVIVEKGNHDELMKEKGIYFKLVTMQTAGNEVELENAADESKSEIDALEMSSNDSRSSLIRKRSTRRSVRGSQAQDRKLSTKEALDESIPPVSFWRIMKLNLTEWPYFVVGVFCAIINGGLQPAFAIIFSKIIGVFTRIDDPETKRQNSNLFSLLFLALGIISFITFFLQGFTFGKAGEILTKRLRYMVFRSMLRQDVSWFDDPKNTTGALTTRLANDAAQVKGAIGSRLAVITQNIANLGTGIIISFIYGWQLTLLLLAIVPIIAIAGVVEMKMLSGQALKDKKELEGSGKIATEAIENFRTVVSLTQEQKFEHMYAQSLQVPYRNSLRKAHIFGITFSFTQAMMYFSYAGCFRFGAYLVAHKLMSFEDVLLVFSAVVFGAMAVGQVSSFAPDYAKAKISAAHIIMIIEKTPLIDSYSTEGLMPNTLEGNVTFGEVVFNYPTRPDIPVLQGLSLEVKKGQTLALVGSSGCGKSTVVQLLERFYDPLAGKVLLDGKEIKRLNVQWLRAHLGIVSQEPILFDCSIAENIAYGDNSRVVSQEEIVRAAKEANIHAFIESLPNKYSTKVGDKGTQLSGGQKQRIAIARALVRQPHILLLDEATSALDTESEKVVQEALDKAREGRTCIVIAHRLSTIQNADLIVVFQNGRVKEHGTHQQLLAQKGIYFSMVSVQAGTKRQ
Structure (SMILES),increase of oral digoxin AUC (P-gp),decrease in metabolite-to-parent ratio MP AUC0-24 [1],decrease in metabolite-to-parent ratio MP Cmax [1] [%]
C[C@H]1O[C@@H](O[C@H]2[C@@H](O)C[C@H](O[C@H]3[C@@H](O)C[C@H](O[C@H]4CC[C@@]5(C)[C@H](CC[C@@H]6[C@@H]5C[C@@H](O)[C@]5(C)[C@@H](C7=CC(=O)OC7)CC[C@]65O)C4)O[C@@H]3C)O[C@@H]2C)C[C@H](O)[C@@H]1O [digoxin],approximately 1.7 fold,–,–
Cc1c(C#N)cccc1-c1cc(-c2c[nH]nn2)nc(N)n1 [N-dealkylated etrumadenant],–,approximately 87%,~90

# Source: patent US20260115190A1, “DISPERSIONS OF ETRUMADENANT” (Arcus Biosciences, Inc., priority 2022, published 2026)
